Series [1] can be described thus: Log D measurements (octanol/PBS, 13C NMR). In kind it is physicochemical. The conditions noted are these: octanol / 1×PBS pH 7.4, 16 h shaking.
Method: 45 μmoles of ABA and 3-^13C-sodium L-lactate dissolved in 500 μL of 1×PBS at pH 7.4 were added to 500 μL of octanol and vigorously shaken for 16 h and then centrifuged for 2 min at 10,000×Gs to extract PBS. A 200 μL of D2O along with 188.7 μmoles (10 μL of 99.8%) of acetonitrile was added to the PBS and a carbon NMR was performed with 16 scans. The area under the curve for the NMR traces obtained was calculated using Mest-ReC software. Similarly, a carbon NMR was performed with 16 scans on a solution containing 45 μmoles of ABA, 45 μmoles of 3-^13C-sodium L-lactate dissolved in 500 μL of 1×PBS at pH 7.4 along with 200 μL of D2O and with 188.7 μmoles (10 μL of 99.8%) of acetonitrile. Area under the curve for the NMR traces obtained was calculated using Mest-ReC software. Acetonitrile peak at δ=1.47 was used as reference.
Furthermore, as controls, 3-^13C-sodium L-lactate dissolved in 500 μL of 1×PBS at pH 7.4 was added to 500 μL of octanol and vigorously shaken for 16 h and then centrifuged for 2 min at 10,000×Gs to extract PBS. A 200 μL of D2O along with 188.7 μmoles (10 μL of 99.8%) of acetonitrile was added to the PBS and a carbon NMR was performed with 16 scans. The area under the curve for the NMR traces obtained was calculated using Mest-ReC software. […] Area under the curve for the NMR traces obtained was calculated using Mest-ReC software.
The nature of series [2]: Permeation through DMPC liposomes (lactate assay kit). The format is in vitro ADME. The conditions noted are these: 112 mM. The method, then: It was investigated whether ABA can enhance lactate membrane permeability. Liposomes were generated from 1,2-dimyristoyl-sn-glycero-3-phosphocholine (DMPC), by evaporating 400 μL of 1 mg/mL of DMPC in chloroform in a 100 mL glass flask to completion; and the lipids were re-suspended in 400 μL PBS, thereby forming the liposomes. 50 μL of the liposomes and 50 μL of 112 mM ABA premixed with lactate were then added to the wells of the 96-well plate, and lactate assay kit was performed, according to the manufacturer's instructions. As controls, 50 μL of PBS and 50 μL of 112 mM ABA premixed with lactate were then added to the wells of the 96-well plate and lactate assay kit was performed, according to the manufacturer's instructions. Furthermore, for determining the permeability of lactate through the liposomes, 50 μL of the liposomes and 50 μL of 112 mM lactate were added to the wells of the 96-well plate, and lactate assay kit was performed, according to the manufacturer's instructions. As controls, 50 μL of PBS and 50 μL of 112 mM lactate were added to the wells of the 96-well plate and lactate assay kit was performed, according to the manufacturer's instructions.

The values that follow come from patent publication US9585958B2, “Compositions and methods for reducing lactate levels” (The Regents of the University of California, priority 2013, dated 2017).

A word on the Log D: it is the decadic logarithm of the distribution of all forms, ionised or not, between an organic phase and buffer at a given pH.

On to `C[C@H](O)C(=O)[O-].[Na+]` [lactate, sodium L-lactate], for which, in series [1], the “Log D” value is −2. Further, the permeation through liposomes entry in series [2] is reported as “did not permeate through the liposomes”.
